How the values were obtained:
[1] = system: patients with advanced androgen-independent prostate cancer; test: Open-labeled clinical study of 1α,24-(OH)2D2 in advanced androgen-independent prostate cancer; assay type: in vivo; conditions: for progression of metastatic disease (CAT scans, X-rays, bone scans): second phase, after one and two years
Source text: (§1) Patients with advanced androgen-independent prostate cancer participate in an open-labeled study of 1α,24-(OH)2D2. […] On admission to the study, patients begin a course of therapy with intravenous 1α,24-(OH)2D2 lasting 26 weeks, while discontinuing any previous use of calcium supplements, vitamin D supplements, and vitamin D hormone replacement therapies. During treatment, the patients are monitored at regular intervals for: (1) hypercalcemia, hyperphosphatemia, hypercalciuria, hyperphosphaturia and other toxicity; (2) evidence of changes in the progression of metastatic disease; and (3) compliance with the prescribed test drug dosage.
(§2) The study is conducted in two phases. During the first phase, the maximal tolerated dosage (MTD) of daily 1α,24-(OH)2D2 is determined by administering progressively higher dosages to successive groups of patients. All doses are administered in the morning before breakfast. The first group of patients is treated with 25.0 μg of 1α,24-(OH)2D2 (formulated with 2.5% w/w benzyl alcohol, 0.5%–2.5% w/w TWEEN™-20, and 20 ppm BHT). Subsequent groups of patients are treated with 50.0, 75.0 and 100.0 μg/day. Dosing is continued uninterrupted for the duration of the study unless serum calcium exceeds 11.6 mg/dL, or other toxicity of grade 3 or 4 is observed, in which case dosing is held in abeyance until resolution of the observed toxic effect(s) and then resumed at a level which has been decreased by 10.0 μg.
(§3) During the second phase, patients are treated with 1α,24-(OH)2D2 for 24 months at 0.5 and 1.0 times the MTD.

[2] = system: elderly subjects with secondary hyperparathyroidism; test: Open label study of elderly subjects with elevated blood PTH from secondary hyperparathyroidism; assay type: in vivo, human; conditions: oral 2.5 μg/day, twelve weeks
Experimental: Thirty elderly subjects with secondary hyperparathyroidism are enrolled in an open label study. The selected subjects have ages between 60 and 100 years and have elevated serum PTH levels (greater than the upper limit of young normal range). Subjects also have femoral neck osteopenia (femoral neck bone mineral density of […]).
Subjects are requested to keep a diet providing approximately 500 mg calcium per day without the use of calcium supplements. For a twelve week treatment period, subjects self-administer orally 2.5 μg/day 1α-OH-vitamin D2.(i.e., 2.5 μg doxercalciferol, 2.5% w/w benzyl alcohol, 0.5%–2.5% w/w TWEEN™-20, and 20 ppm BHT) At regular intervals throughout the treatment period, subjects are monitored for serum PTH levels, serum calcium and phosphorus, and urine calcium and phosphorus levels. Efficacy is evaluated by pre- and post-treatment comparisons of serum PTH levels. Safety is evaluated by serum and urine calcium and phosphorus values.

[3] = system: patients with advanced androgen-independent prostate cancer; test: Study of Example 7 repeated for 1α-(OH)D2 in prostate cancer; assay type: in vivo, human; conditions: for progression of metastatic disease (CAT scans, X-rays, bone scans): phase two, after two years
Source text: as §1, §2, §3
The study of Example 7 is repeated for the active vitamin D compound, 1α-(OH)D2 (formulated with 2.5% w/w benzyl alcohol, 0.5%–2.5% w/w TWEEN™-20, and 20 ppm BHT). […] In summary, the present invention provides an improved formulation for lipophilic drug agents that are only slightly soluble in an aqueous vehicle. The formulation in addition to the lipophilic drug agent includes a lipophilic antioxidant, a non-ionic solubilizer or surfactant, and optionally, an agent which is an organic solvent/ preservative.

[4] = system: End Stage Renal Disease patients with secondary hyperparathyroidism; test: Double-blind placebo-controlled study in ESRD hemodialysis patients exhibiting secondary hyperparathyroidism; assay type: in vivo, human
Source text: Up to 120 ESRD (End Stage Renal Disease) patients undergoing chronic hemodialysis are studied in a multicenter, double-blind, placebo-controlled study based in two major U.S. metropolitan areas. The selected patients reside in two major metropolitan areas within the continental U.S., have ages between 20 and 75 years and have a history of secondary hyperparathyroidism. They have been on hemodialysis for at least four months, have a normal (or near normal) serum albumin, and have controlled serum phosphorus (often by using oral calcium phosphate binders).
On admission to the study, each patient is assigned at random to one of two treatment groups. One of these groups receives two consecutive 12-week courses of therapy with 1α-OH-vitamin D2 (doxercalciferol); the other receives a 12-week course of therapy with 1α-OH-vitamin D2 followed, without interruption, by a 12-week course of placebo therapy. Each patient discontinues any 1, α,25-(OH)2-vitamin D3 therapy for eight weeks prior to initiating 1α-OH-vitamin D2 therapy (daily dose of 4 μg doxercalciferol, formulated with 2.5% w/w benzyl alcohol, 0.5%–2.5% w/w TWEEN™-20, and 20 ppm BHT). Throughout this eight-week washout (or control) period and the two subsequent 12-week treatment periods, patients are monitored weekly for serum calcium and phosphorus. Serum intact PTH is monitored weekly or biweekly, and bone-specific serum markers, serum vitamin D metabolites, serum albumin, blood chemistries, hemoglobin and hematocrit are monitored at selected intervals.
During the study, patients undergo routine hemodialysis (three times per week) using a 1.24 mM calcium dialysate and ingest calcium phosphate binders (such as calcium carbonate or calcium acetate) in an amount sufficient to keep serum phosphate controlled (6.9 mg/dL). Patients who develop persistent mild hypercalcemia or mild hyperphosphatemia during the treatment periods reduce their 1α-OH-vitamin D2 to 4 μg three times per week (or lower). Patients who develop marked hypercalcemia or marked hyperphosphatemia immediately suspend treatment. Such patients are monitored at twice weekly intervals until the serum calcium or phosphorus is normalized, and resume 1α-OH-vitamin D2 dosing at a rate which is 4 μg three times per week (or lower).

[5] = treated with the MTD for at least six months

Row | Structure (SMILES) | circulating levels of 1α,25-(OH)2D2 ([1]; blood samples of patients treated with 1α,24-(OH)2D2) | dose dependence of levels of circulating 1α,24-(OH)2D2 ([1]; human, in vivo) | maximum levels of circulating 1α,24-(OH)2D2 ([1]; human, in vivo) | serum and urine calcium ([1]; human, in vivo) | progression of metastatic disease (CAT scans, X-rays, bone scans) ([1]; higher dosage (1.0 times the MTD)) | progression of metastatic disease (CAT scans, X-rays, bone scans) ([1]; lower dosage (0.5 times the MTD)) | bone pain associated with metastatic disease [1, 5] | PTH levels, pre- and post-treatment comparison [2] | incidence of hypercalcemia, hyperphosphatemia, hypercalciuria and hyperphosphaturia [2] | progression of metastatic disease (CAT scans, X-rays, bone scans) ([3]; higher dosage) | progression of metastatic disease (CAT scans, X-rays, bone scans) ([3]; lower dosage) | bone pain associated with metastatic disease [3, 5] | reduction of serum PTH levels (study conclusion) ([4]; ESRD patients) | mean serum PTH after initiation of dosing ([4]; ESRD patients, daily dose of 4 μg doxercalciferol formulated with benzyl alcohol, TWEEN-20, BHT) | safety compared with currently used therapies (study conclusion) ([4]; despite higher dosages and concurrent high levels of oral calcium phosphate binder) | serum levels of calcium and phosphorus ([4]; end of first 12-week treatment period, for end stage renal disease patients) | hypercalcemia ([4]; patients exhibiting excessive suppression of serum PTH, corrected by dosage reduction)
1 | C=C1/C(=C\C=C2/CCC[C@]3(C)[C@@H]([C@H](C)/C=C/C(C)(O)C(C)C)CC[C@@H]23)C[C@H](O)C[C@H]1O (stereo partly drawn) [1α,24-(OH)2D2, 1α,24-dihydroxyvitamin D2] | suppressed, often to undetectable levels | increase proportionately with the dosage administered | above 100 pg/mL | elevated in a dose responsive manner | stable disease and partial or complete remission in many patients | stable disease or partial remission in many patients | significantly diminished |  |  |  |  |  |  |  |  |  | 
2 | C=C1/C(=C\C=C2/CCC[C@]3(C)[C@@H]([C@H](C)/C=C/[C@H](C)C(C)C)CC[C@@H]23)C[C@@H](O)C[C@@H]1O [1α-OH-vitamin D2, 1α-hydroxyvitamin D2] |  |  |  |  |  |  |  | significantly reduce PTH levels | insignificant incidence | stable disease and partial or complete remission in many patients | stable disease or partial remission in many patients | significantly diminished | effective in reducing serum PTH levels | less than 50 % of pretreatment levels | safer than currently used therapies | normal or near normal | transient mild hypercalcemia is observed

Reference: patent US7148211B2, “Formulation for lipophilic agents” (Genzyme Corporation, priority 2002, dated 2006)
